Source: patent US12060387B2, “Polypeptide-based shuttle agents for improving the transduction efficiency of polypeptide cargos to the cytosol of target eukaryotic cells, uses thereof, methods and kits relating to same” (priority 2015, dated 2024)
Read-outs that look alike come from different tables or passages of the source. Where no end group is shown, it is not given here.

What was measured:
primary myoblasts = assay: Calcein endosomal escape assay, quantification by flow cytometry; type: cell-based, Human
Protocol: (§1) In addition to microscopy, flow cytometry allows a more quantitative analysis of the endosomal leakage as the fluorescence intensity signal increases once the calcein is released in the cytoplasm. Calcein fluorescence is optimal at physiological pH (e.g., in the cytosol), as compared to the acidic environment of the endosome.
(§2) The cells were allowed to attach by incubating overnight in appropriate growth media, as described in Example 1. The next day, the media in wells was removed and replaced with 50 μL of fresh media without serum containing 62.5 μg/mL (100 μM) of calcein, except for HEK293A (250 μg/mL, 400 μM). At the same time, the shuttle agent(s) to be tested was added at a predetermined concentration. The plate was incubated at 37° C. for 30 minutes. The cells were washed with 1×PBS (37° C.) and fresh media containing 5-10% serum was added. The plate was incubated at 37° C. for 2.5 hours. The cells were washed with 1×PBS and detached using trypsinization.
(§3) Untreated calcein-loaded cells were used as a control to distinguish cells having a baseline of fluorescence due to endosomally-trapped calcein from cells having increased fluorescence due to release of calcein from endosomes. Fluorescence signal means (“mean counts”) were analyzed for endosomal escape quantification. In some cases, the “Mean Factor” was calculated, which corresponds to the fold-increase of the mean counts relative to control (untreated calcein-loaded cells). […] The cellular mortality was monitored with the percentage of cells in the total events scanned. When it became lower than the control, it was considered that the number of cellular debris was increasing due to toxicity and the assay was discarded.
To examine the effects of the shuttle agents on primary cells, primary myoblast cells were cultured and tested in the endosomal escape assays as described in Example 2.1. The results of flow cytometry analyses are summarized below in Tables 2.9 and 2.10, and in FIG. 4. In each case, the flow cytometry results were also confirmed by fluorescence microscopy.

HeLa cells [1] = assay: Cell toxicity / % cell viability by flow cytometry (cells in total events v. untreated); type: cell-based, Human; settings: HeLa; GFP-NLS 5 μM; shuttle 1 μM; 1 hour
Source text: (§4) The fluorescence of GFP was quantified using flow cytometry (Accuri C6, Becton, Dickinson and Company (BD)). Untreated cells were used to establish a baseline in order to quantify the increased fluorescence due to the internalization of the fluorescent protein in treated cells. The percentage of cells with a fluorescence signal above the maximum fluorescence of untreated cells, “mean %” or “Pos cells (%)”, is used to identify positive fluorescent cells. “Relative fluorescence intensity (FL1-A)” corresponds to the mean of all fluorescence intensities from each cell with a fluorescent signal after fluorescent protein delivery with the shuttle agent. Also, the events scanned by flow cytometry corresponding to cells (size and granularity) were analyzed. The cellular toxicity (% cell viability) was monitored comparing the percentage of cells in the total events scanned of treated cells comparatively to untreated cells.

[2] = as above; type: cell-based, Human; settings: human, HeLa cells, HeLa, 1 hour; for viability at 1 h, 0.5 µM / viability at 1 h, 1 µM / viability at 1 h, 3 µM / viability at 1 h, 5 µM: Cell viability (%) (±St. Dev.; n = 3), read-out: Cell viability (%) (±St. Dev.; n = 3); for viability at 1 h, 0.5 µM: shuttle 0.5 μM; for viability at 1 h, 1 µM: shuttle 1 μM; for viability at 1 h, 3 µM: shuttle 3 μM; for viability at 1 h, 5 µM: shuttle 5 μM
Source text: as §4

[3] = as above; type: cell-based, human; settings: human, THP-1 cells, Cell viability (%) (±St. Dev.; n = 3), FIG. 17B; THP-1; GFP-NLS 5 μM; shuttle 1 μM; 5 minutes
Source text: as §4

HeLa cells [4] = assay: GFP transduction efficiency, flow cytometry (% GFP-positive cells); type: cell-based, Human; settings: for Mean (%) (n = 3), FIG. 7B: shuttle 2.5 μM
Protocol: GFP, GFP-NLS and TAT-GFP are recombinant proteins developed and produced by Feldan (see Example 3.4 below).
Briefly, GFP recombinant protein was co-incubated with different concentrations of CM18-TAT-Cys or dimerized CM18-TAT-Cys (dCM18-TAT-Cys), and then exposed to HeLa cells for 1 hour.
Briefly, GFP recombinant protein (5 μM) was co-incubated with different concentrations and combinations of CM18-TAT-Cys, CM18-Penetratin-Cys, and dimers of each (dCM18-TAT-Cys, dCM18-Penetratin-Cys), and then exposed to HeLa cells for 1 hour. […] The results are shown in Table 3.3 and FIG. 8, as well as in Table 3.4 and FIG. 9.

HeLa cells [5] = type: cell-based, Human
Protocol: as §1, §2, §3
HeLa cells were cultured and tested in the endosomal escape assays as described in Example 2.1. In each case, the flow cytometry results were also confirmed by fluorescence microscopy (data not shown).

HeLa cells [6] = assay: GFP-NLS transduction efficiency, flow cytometry (Pos cells %, relative fluorescence intensity FL1-A); type: cell-based, Human; settings: GFP-NLS 5 μM, 1 hour
[7] = FIG. 11B, TAT-GFP 5 μM, FIG. 11B
[8] = FIG. 13B, GFP-NLS 5 μM, FIG. 13B
[9] = FIG. 21B, GFP-NLS 5 μM, FIG. 21B

KWKLFKKIGAVLKVLTTGYGRKKRRQRRRC [CM18-TAT-Cys]
concentrations associated with an increase in cell toxicity (primary myoblasts; myoblast cells): above 10 μM
Cell viability (%) (±St. Dev.; n = 3), FIG. 21B (HeLa cells [1]): 94 ± 4.28%
viability at 1 h, 0.5 µM ([2]; FIG. 6B, GFP 5 μM, FIG. 6B): 88.4 ± 6%
viability at 1 h, 1 µM ([2]; FIG. 6B, GFP 5 μM, FIG. 6B): 90 ± 6%
viability at 1 h, 3 µM ([2]; FIG. 6B, GFP 5 μM, FIG. 6B): 91 ± 5%
viability at 1 h, 5 µM ([2]; FIG. 6B, GFP 5 μM, FIG. 6B): 90 ± 7%
viability at 1 h, 0.5 µM [2, 7]: 84.4 ± 5%
viability at 1 h, 1 µM [2, 7]: 89.3 ± 5.26%
viability at 1 h, 3 µM [2, 7]: 93.2 ± 6.28%
viability at 1 h, 5 µM [2, 7]: 95.1 ± 5.28%
viability at 1 h, 0.5 µM [2, 8]: 87.6 ± 4%
viability at 1 h, 1 µM [2, 8]: 93 ± 8%
viability at 1 h, 3 µM [2, 8]: 94 ± 5%
viability at 1 h, 5 µM [2, 8]: 93 ± 4%
viability at 1 h, 3 µM [2, 9]: 89 ± 5.37%
viability at 1 h, 5 µM [2, 9]: 81 ± 6.34%
viability at 1 h, 3.5 µM ([2]; antibody 0.5 μM, shuttle 3.5 μM, read-out: Cell viability (%) (± St. Dev.; n = 3), FIG. 19B): 95 ± 4.06%
viability at 5 min, 1 µM [3]: 85 ± 6%

KWKLFKKIGAVLKVLTTGYGRKKRRQRRRC [dCM18-TAT-Cys]
Mean counts (primary myoblasts; primary myoblasts, peptide 2.5 μM, Table 2.11): 64 864
Mean Factor (primary myoblasts; primary myoblasts, peptide 2.5 μM, factor v. no peptide): 2.1
GFP transduction efficiency / intracellular delivery (in words) (HeLa cells [4]; GFP 5 μM, 1 hour, Table 3.3 and FIG. 8): increased
GFP transduction efficiency / intracellular delivery (in words) (HeLa cells [4]; GFP 5 μM, 1 hour, Table 3.4 and FIG. 9): increased
Mean (%) (n = 3), FIG. 8 (HeLa cells [4]; GFP 5 μM, shuttle 0.5 μM, 1 hour): 8.86%
Mean (%) (n = 3), FIG. 9 (HeLa cells [4]; GFP 5 μM, shuttle 1 μM, 1 hour): 18.43%
Mean (%) (n = 3), FIG. 7B (HeLa cells [4]; GFP 1 μM): 9.38%
Mean (%) (n = 3), FIG. 7B (HeLa cells [4]; GFP 5 μM): 22.2%
Mean (%) (n = 3), FIG. 7B (HeLa cells [4]; GFP 10 μM): 34.2%
Mean Factor (HeLa cells [5]; Table 2.6, dimer 2 μM): 1.3
Mean counts (n = 4) (HeLa cells [5]; Table 2.6, dimer 2 μM): 79 380
Mean Factor (HeLa cells [5]; Table 2.7, dimer 2 μM): 3.1
Mean counts (n = 3) (HeLa cells [5]; Table 2.7, dimer 2 μM): 174 274
GFP-NLS transduction efficiency / intracellular delivery (in words) (HeLa cells [6]; Tables 5.2, 5.3, FIGS. 14, 15): increased
Mean (%) (n = 3), FIG. 14 (HeLa cells [6]; shuttle 0.5 μM): 8.29%
Mean (%) (n = 3), FIG. 15 (HeLa cells [6]; shuttle 1 μM): 17.83%
